Here are results for eleven compounds from patent US20250122191A1, “COMPOUNDS AS BCL-2 INHIBITORS” (Fochon Biosciences, Ltd, priority 2021, published 2025).

The structures appear in SMILES notation.

One may read the IC50 as the concentration needed to halve the response being measured.

The subject of the first assay is RS4;11-BCL-2 G101V cells. Description: Cell proliferation assay (MTS), RS4;11-BCL-2 G101V engineered cells. The class given is cell-based. As to conditions: Homo sapiens, 120 h, read-out: RS4, 11 BCL2-G101V IC50. The text has this: MTS testing kit was purchased from Promega (Madison, WI, USA). The RPMI-1640, Fetal bovine serum and Penicillin-Streptomycin were purchased from BI (Biological Industries, Beit Haemek, Israel). Puromycin was purchased from Beyotime (shanghai, China). Dimethyl sulfoxide (DMSO) was purchased from Sigma (St. Louis., MO, USA). RS4;11-BCL-2 G101V (Cobioer Lot. #: CBD2021063013P4), RS4;11-BCL-2 D103E (Cobioer Lot. #: CBD2021063013P4), RS4;11-BCL-2 D103Y (Cobioer Lot. #: CBD2022012101P4) and RS4;11-BCL-2 F104L (Cobioer Lot. #: CBD2021063014P4) cells were cultured in RPMI1640 supplemented with 1 ug/mL puromycin, 100 U/mL Penicillin-Streptomycin and 10% FBS.
To investigate whether a compound is able to inhibit the activity of BCL-2 mutation in cells, a mechanism-based assay using engineered cell lines stably overexpressing BCL-2 mutation (RS4;11-BCL-2 G101V, RS4;11-BCL-2 D103E, RS4;11-BCL-2 D103Y, and RS4;11-BCL-2 F104L) was developed. In this assay, the inhibition of BCL-2 mutation was reflected by the inhibition of cell proliferation of engineered RS4;11 cells. Cells were plated into 96-well plates at optimized cell density (RS4;11-BCL-2 G101V: 5000 cells/well; RS4;11-BCL-2 D103E: 7500 cells/well; RS4;11-BCL-2 D103Y: 7500 cells/well; RS4;11-BCL-2 F104L: 5000 cells/well). Plates were incubated at 37° C., with 5% CO2 for 4 h (RS4;11-BCL-2 G101V, RS4;11-BCL-2 F104L) and 24 h (RS4;11-BCL-2 D103E, RS4;11-BCL-2 D103Y), respectively. Compounds were serially diluted and added to the plates with the final concentrations of 10000, 3333.3, 1111.1, 370.4, 123.5, 41.2, 13.7, 4.6 and 1.5 nM. Plates were incubated at 37° C., with 5% CO2 for 120 h (RS4; 11-BCL-2 G101V, RS4; 11-BCL-2 F104L) and 72 h (RS4;11-BCL-2 D103E, RS4;11-BCL-2 D103Y), respectively. 20 μl MTS was added into each well and the plates were incubated at 37° C., with 5% CO2 exactly for 2 h. The absorbance was measured by a microplate reader at 490 nm. IC50 values were calculated using GraphPad Prism 8.0 software.
`CCOc1nc2[nH]cc(F)c2cc1Oc1cc(N2CCC3(CC2)CC(N2CCN(Cc4ccc(C#N)cc4)C[C@H]2c2ccccc2C(C)C)C3)ccc1C(=O)NS(=O)(=O)c1cnc(NC[C@H]2CC[C@](C)(O)CC2)c([N+](=O)[O-])c1` [Example 235, 4-(2-((R)-4-(4-cyanobenzyl)-2-(2-isopropylphenyl)piperazin-1-yl)-7-azaspiro[3.5]nonan-7-yl)-2-((6-ethoxy-3-fluoro-1H-pyrrolo [2,3-b]pyridin-5-yl)oxy)-N-((6-((((1r,4r)-4-hydroxy-4-methylcyclohexyl)methyl)amino)-5-nitropyridin-3-yl)sulfonyl)benzamide]: the IC50 came to 1 nM.

Another assay deals with Toledo cells. Description: Cell proliferation assay (MTS), Toledo cells. It is filed as cell-based. As to conditions: Homo sapiens, 72 h. Here is the method: MTS testing kit was purchased from Promega (Madison, WI, USA). The RPMI-1640, Fetal bovine serum and Penicillin-Streptomycin were purchased from BI (Biological Industries, Beit Haemek, Israel). Dimethyl sulfoxide (DMSO) was purchased from Sigma (St. Louis., MO, USA). Toledo (ATCC catalog #: CRL-2631) cells were cultured in RPMI-1640 supplemented with Penicillin-Streptomycin and 10% FBS.
To investigate whether a compound is able to inhibit the activity of BCL-2 in cells, a mechanism-based assay using Toledo lines was developed. In this assay, the inhibition of BCL-2 was reflected by the inhibition of cell proliferation of Toledo cells. Cells were plated into 96-well plates at the optimized cell density of 30000 cells/well. Plates were incubated at 37° C., with 5% CO2 for 4 h. Compounds were serially diluted and added to the plates with the final concentrations of 10000, 3333.3, 1111.1, 370.4, 123.5, 41.2, 13.7, 4.6 and 1.5 nM. Plates were incubated at 37° C., with 5% CO2 for 72 h. 20 μl MTS was added into each well and the plates were incubated at 37° C., with 5% CO2 for exactly 2 h. The absorbance was measured by a microplate reader at 490 nm. IC50 was calculated using GraphPad Prism 5.0 software.
In turn, `CCOc1nc2[nH]cc(F)c2cc1Oc1cc(N2CCC3(CC2)CC(N2CCN(Cc4ccc(C#N)cc4)C[C@H]2c2ccccc2C(C)C)C3)ccc1C(=O)NS(=O)(=O)c1cnc(NC[C@H]2CC[C@](C)(O)CC2)c([N+](=O)[O-])c1` [Example 235, 4-(2-((R)-4-(4-cyanobenzyl)-2-(2-isopropylphenyl)piperazin-1-yl)-7-azaspiro[3.5]nonan-7-yl)-2-((6-ethoxy-3-fluoro-1H-pyrrolo [2,3-b]pyridin-5-yl)oxy)-N-((6-((((1r,4r)-4-hydroxy-4-methylcyclohexyl)methyl)amino)-5-nitropyridin-3-yl)sulfonyl)benzamide] registered an IC50 of 1 nM.
On the same count and under the same terms, next, `CCOc1nc2[nH]cc(F)c2cc1Oc1cc(N2CCC3(CC2)CC(N2CCN(Cc4ccc(OC)c(F)c4)C[C@H]2c2ccccc2C(C)C)C3)ccc1C(=O)NS(=O)(=O)c1cnc(NC[C@H]2CC[C@](C)(O)CC2)c([N+](=O)[O-])c1` [Example 98, 2-((6-ethoxy-3-fluoro-1H-pyrrolo[2,3-b]pyridin-5-yl)oxy)-4-(2-((R)-4-(3-fluoro-4-methoxybenzyl)-2-(2-isopropylphenyl)piperazin-1-yl)-7-azaspiro[3.5]nonan-7-yl)-N-((6-((((1r,4r)-4-hydroxy-4-methylcyclohexyl)methyl)amino)-5-nitropyridin-3-yl)sulfonyl)benzamide]: 1 nM.
On to `CCOc1nc2[nH]cc(F)c2cc1Oc1cc(N2CCC3(CC2)CC(N2CCN(C4CC4)C[C@H]2c2ccccc2C(C)C)C3)ccc1C(=O)NS(=O)(=O)c1cnc(NC[C@H]2CC[C@](C)(O)CC2)c([N+](=O)[O-])c1` [Example 144, 4-(2-((R)-4-cyclopropyl-2-(2-isopropylphenyl)piperazin-1-yl)-7-azaspiro[3.5]nonan-7-yl)-2-((6-ethoxy-3-fluoro-1H-pyrrolo[2,3-b]pyridin-5-yl)oxy)-N-((6-((((1r,4r)-4-hydroxy-4-methylcyclohexyl)methyl)amino)-5-nitropyridin-3-yl)sulfonyl)benzamide], for which it took 1 nM to reach half-maximal inhibition (IC50).
Still for that read-out and setting: next, `CC(=O)N1CCN(C2CC3(CCN(c4ccc(C(=O)NS(=O)(=O)c5cnc(NC[C@H]6CC[C@](C)(O)CC6)c([N+](=O)[O-])c5)c(Oc5cnc6[nH]cc(F)c6c5)c4)CC3)C2)[C@H](c2ccccc2C(C)C)C1` [Example 148, 4-(2-((R)-4-acetyl-2-(2-isopropylphenyl)piperazin-1-yl)-7-azaspiro[3.5]nonan-7-yl)-2-((3-fluoro-1H-pyrrolo[2,3-b]pyridin-5-yl)oxy)-N-((6-((((1r,4r)-4-hydroxy-4-methylcyclohexyl)methyl)amino)-5-nitropyridin-3-yl)sulfonyl)benzamide]: 1 nM; `CCOc1nc2[nH]cc(F)c2cc1Oc1cc(N2CCC3(CC2)CC(N2CCN(Cc4ccncc4)C[C@H]2c2ccccc2C(C)C)C3)ccc1C(=O)NS(=O)(=O)c1cnc(NC[C@H]2CC[C@](C)(O)CC2)c([N+](=O)[O-])c1` [Example 238, 2-((6-ethoxy-3-fluoro-1H-pyrrolo[2,3-b]pyridin-5-yl)oxy)-N-((6-((((1r,4r)-4-hydroxy-4-methylcyclohexyl)methyl)amino)-5-nitropyridin-3-yl)sulfonyl)-4-(2-((R)-2-(2-isopropylphenyl)-4-(pyridin-4-ylmethyl)piperazin-1-yl)-7-azaspiro[3.5]nonan-7-yl)benzamide]: 1 nM.
Same read-out and setting: as for `COc1cc(CN2CCC(N3CC4(CCN(c5ccc(C(=O)NS(=O)(=O)c6cnc(NC[C@H]7CC[C@](C)(O)CC7)c([N+](=O)[O-])c6)c(Oc6cc7c(F)c[nH]c7nc6OC)c5)CC4)C3)C(c3ccccc3C(C)C)C2)ccc1C1CC1` (stereo partly drawn) [Example 24, 4-(2-(1-(4-cyclopropyl-3-methoxybenzyl)-3-(2-isopropylphenyl)piperidin-4-yl)-2,7-diazaspiro[3.5]nonan-7-yl)-2-((3-fluoro-6-methoxy-1H-pyrrolo[2,3-b]pyridin-5-yl)oxy)-N-((6-((((1r,4r)-4-hydroxy-4-methylcyclohexyl)methyl)amino)-5-nitropyridin-3-yl)sulfonyl)benzamide], the figure is 1 nM; as for `CCOc1nc2[nH]cc(F)c2cc1Oc1cc(N2CCC3(CC2)CC(N2CCN(C(C)C)C[C@H]2c2ccccc2C(C)C)C3)ccc1C(=O)NS(=O)(=O)c1cnc(NC[C@H]2CC[C@](C)(O)CC2)c([N+](=O)[O-])c1` [Example 100, 2-((6-ethoxy-3-fluoro-1H-pyrrolo[2,3-b]pyridin-5-yl)oxy)-N-((6-((((1r,4r)-4-hydroxy-4-methylcyclohexyl)methyl)amino)-5-nitropyridin-3-yl)sulfonyl)-4-(2-((R)-4-isopropyl-2-(2-isopropylphenyl)piperazin-1-yl)-7-azaspiro[3.5]nonan-7-yl)benzamide], 1 nM; as for `CC(C)c1ccccc1[C@@H]1CN(Cc2ccc(OC(F)F)cc2)CCN1C1CC2(CCN(c3ccc(C(=O)NS(=O)(=O)c4cnc(NC[C@H]5CC[C@](C)(O)CC5)c([N+](=O)[O-])c4)c(Oc4cnc5[nH]cc(F)c5c4)c3)CC2)C1` [Example 343, 4-(2-((R)-4-(4-(difluoromethoxy)benzyl)-2-(2-isopropylphenyl)piperazin-1-yl)-7-azaspiro[3.5]nonan-7-yl)-2-((3-fluoro-1H-pyrrolo[2,3-b]pyridin-5-yl)oxy)-N-((6-((((1r,4r)-4-hydroxy-4-methylcyclohexyl)methyl)amino)-5-nitropyridin-3-yl)sulfonyl)benzamide], 1 nM.
`CCOc1nc2[nH]cc(F)c2cc1Oc1cc(N2CCC3(CC2)CC(N2CCN(Cc4ccc(OC)cn4)C[C@H]2c2ccccc2C(C)C)C3)ccc1C(=O)NS(=O)(=O)c1cnc(NC[C@H]2CC[C@](C)(O)CC2)c([N+](=O)[O-])c1` [Example 121, 2-((6-ethoxy-3-fluoro-1H-pyrrolo[2,3-b]pyridin-5-yl)oxy)-N-((6-((((1r,4r)-4-hydroxy-4-methylcyclohexyl)methyl)amino)-5-nitropyridin-3-yl)sulfonyl)-4-(2-((R)-2-(2-isopropylphenyl)-4-((5-methoxypyridin-2-yl)methyl)piperazin-1-yl)-7-azaspiro[3.5]nonan-7-yl)benzamide]: the IC50 came out at 1 nM.
On the same count and under the same terms, next, `CCOc1nc2[nH]cc(F)c2cc1Oc1cc(N2CCC3(CC2)CC(N2CCN(C(C)=O)C[C@H]2c2ccccc2C(C)C)C3)ccc1C(=O)NS(=O)(=O)c1cnc(NC[C@H]2CC[C@](C)(O)CC2)c([N+](=O)[O-])c1` [Example 147, 4-(2-((R)-4-acetyl-2-(2-isopropylphenyl)piperazin-1-yl)-7-azaspiro[3.5]nonan-7-yl)-2-((6-ethoxy-3-fluoro-1H-pyrrolo[2,3-b]pyridin-5-yl)oxy)-N-((6 ((((1r,4r)-4-hydroxy-4-methylcyclohexyl)methyl)amino)-5-nitropyridin-3-yl)sulfonyl)benzamide]: 1 nM; `CC(C)c1ccccc1[C@@H]1CN(Cc2ccc(S(C)(=N)=O)cc2)CCN1C1CC2(CCN(c3ccc(C(=O)NS(=O)(=O)c4cnc(NC[C@H]5CC[C@](C)(O)CC5)c([N+](=O)[O-])c4)c(Oc4cnc5[nH]cc(F)c5c4)c3)CC2)C1` (stereo partly drawn) [Example 337, 2-((3-fluoro-1H-pyrrolo[2,3-b]pyridin-5-yl)oxy)-N-((6-((((1r,4r)-4-hydroxy-4-methylcyclohexyl)methyl)amino)-5-nitropyridin-3-yl)sulfonyl)-4-(2-((2R)-2-(2-isopropylphenyl)-4-(4-(S-methylsulfonimidoyl)benzyl)piperazin-1-yl)-7-azaspiro[3.5]nonan-7-yl)benzamide]: 1 nM.
